Results reported in patent publication US20120010178A1, “METHODS AND COMPOUNDS FOR TREATMENT OF NEURODEGENERATIVE DISORDERS” (PRESIDENT AND FELLOWS OF HARVARD COLLEGE, priority 2008, published 2012).
“Also recorded” adds a separate entry of the source. Residues, ends and D or L forms follow the SMILES beside them. *: point of attachment. Cbz = O=C(OCc1ccccc1)*

Key:
[1] = tested on: SMN; assay: High-content fibroblast screen for compounds that modulate SMN level; details: for SMN level in fibroblast screen (increase or decrease): human fibroblasts, 2-3 days with compound;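 on all read-outs here: Anti-SMN immunostaining with confocal imaging of nuclear and cytoplasmic SMN and gem counts, tested at 0.1, 1 and 10 uM, fold change relative to negative control wells on each plate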
[2] = tested on: SMN; assay: SMN immunofluorescence quantification (cytoplasm, nucleus, GEMs) in fibroblasts from SMA patients; type: cell-based, human; details: for levels of cytoplasmic and nuclear SMN (in words) / fold increase in nuclear SMN / fold increase in cytoplasmic SMN: SMA patient fibroblasts; for levels of cytoplasmic and nuclear SMN (in words): substance alone
Procedure: Specifically, fibroblasts from patients suffering from SMA were treated with Ionomycin (a channel modulator), Ouabain (a cardiac glycoside and channel modulator), PDGF, SAHA (an HDAC inhibitor), Lactacystin (a proteasome inhibitor) or WIN 55,212-2 (a cannabinoid receptor […] and GPCR ligand) for 72 hours. The cells were fixed with methanol/acetone and stained with Pharmingen BD antibodies, followed by 488 AlexaFluor staining. Images were obtained with 60× lens on Zeiss LSM510 META on an inverted confocal microscope.
For example, fibroblasts from patients suffering from SMA were treated with Ouabain, Digoxin or Lanatoside at a concentration of 0, 2.5 nM, 5 nM, 10 nM, 20 nM, 40 nM, 80 nM, […] for 72 hours. The cells were fixed with methanol/acetone and stained with Pharmingen BD antibodies, followed by 488 AlexaFluor staining. Images were obtained with 60× lens on Zeiss LSM510 META on an inverted confocal microscope.
An assay was established for high-content evaluation of SMN protein level in different cellular compartments after treatment with small molecules. SMN protein was visualized by immunofluorescent staining and multiple fields from each plate well were scanned by an automated confocal Opera microscope. […] For each well, the algorithm generated quantitative parameters representing number of cells, as well as SMN fluorescent intensity per cell in cytoplasm, nucleus, number and intensity of GEMs (FIG. 15). […] During the assay transfer to the robotic platform fixation with the ice cold methanol was technically limited, therefore to preserve the maximum possible window we chose to perform the screen on parental fibroblast with PFA fixation.
For fibroblast assays, human fibroblasts lines GM09677 (derived from patient with SMA type 1 disease) and GM03814 (derived from unaffected parental SMA carriers) were used (Coriell Cell Repositories). […] For secondary assays cells from GM09677 line were used.
Fibroblasts were grown in MEM media (Invitrogen) supplemented with 5% Fetal Bovine Serum (FBS, Invitrogen), 2 mM glutamine and 1% penicillin-streptomycin (100 U/ml) in a presence of 5% CO2 at 37° C. For drug treatments, cells were plated and treated 24 h later with 10 μM MG132 (Biomol International), […] Calpeptin (Biomol International), 10 mM ammonium chloride, 1 μM myristoylated PKI, or vehicle for the designated times.
(§1) Compounds were stored at appropriate temperature and dissolved accordingly to the manufacturers (Tocris, Enzo, EMD and Sigma-Aldrich) in DMSO (Sigma-Aldrich), unless stated otherwise (Monensin Na in EtOH, DMPQ in water). Growth factors and PDGF neutralizing antibodies (R&D Systems) were reconstituted with buffers recommended by the supplier. For generation of the dose curves, 1×10^3 fibroblasts were plated on to 96-well Greiner Senso plates (VWR) and treated with compounds on the second day then fixed and stained at the indicated time points. For GSK inhibitors and performing p-GSK3b(Ser9) detection, two days after plating growth media containing 5% FBS was replaced to the media with FBS reduced down to 0.5%, to starve cells for 72 hours. Addition of the GSK inhibitors was done in 5% FBS enriched media.

[3] = tested on: SMN; assay: Inhibition of PDGF-stimulated SMN increase in fibroblasts by kinase/receptor inhibitors; type: cell-based, human; details: SMA patient fibroblasts, PDGF plus inhibitor or neutralizing antibody
Procedure: Fibroblasts from patients suffering from SMA were treated with PDGF at a concentration of 0, 0.3 ng/ml, 0.63 ng/ml, 1.25 ng/ml, 2.5 ng/ml, 5 ng/ml, 10 ng/ml or 20 ng/ml, in the absence or in the presence of 25 uM DMPQ or 25 uM AG-1296 respectively for 72 hours. The levels of both cytoplasmic and nuclear SMN were detected and quantified using the method described in Example 2.
(§2) Fibroblasts from patients suffering from SMA were either control treated or treated with PDGF at a concentration of 0, 0.63 ng/ml, 1.25 ng/ml, 2.5 ng/ml, 5 ng/ml, 10 ng/ml or 20 ng/ml, in the absence or in the presence of 50 uM LY294002 or 2 uM P1-103 respectively for 72 hours. The levels of both cytoplasmic and nuclear SMN were detected and quantified using the method described in Example 2.
as §2, with “of” for “of 50 uM LY294002 or”, “uM Papamycin” for “uM P1-103 respectively”, “Example x.” for “Example 2.”
A range of concentrations were tested in order not to miss the effects. SMN level were evaluated by Opera Evoteck in each cellular compartment and to assess the cell numbers that are summarized in the Table 3.
as §1, with “media. As previously described, starvation increases levels of constitutively activate GSK3b kinase, allowing to achieve a more dramatic inhibitory effect when GSK inhibitors are added together with growth factors that are also known to inhibit GSK by Ser-9 phosphorylation. […] For all compounds and growth factors control wells received solvent in amount equivalent to the highest concentration of the compound in a dose curve. For PDGF inhibitory studies, cells were pre-treated with kinase inhibitors for 2 hours and PDGF was added with a fresh kinase inhibitor solution and incubated for an additional 3 days.” for “media.”

Compound	SMN level in fibroblast screen (increase or decrease) [1]	levels of cytoplasmic and nuclear SMN (in words) [2]	also measured
N#CCCc1ccc2c(c1)-c1[nH]c3ccc([N+](=O)[O-])cc3c1CC(=O)N2	SMN is increase	able to elevate SMN in patient fibroblasts	–
COc1cc2ncc(-c3ccccc3)nc2cc1OC [AG-1296]	decreased SMN	–	decrease of basal level of SMN ([2]; added to the regular serum media in which cells are maintained, no added PDGF): 20%; PDGF-stimulated SMN increase in presence of inhibitor (in words) [3]: sufficient to prevent PDGF effect on SMN; also recorded: abrogated; PDGF-stimulated SMN increase in presence of inhibitor (in words) ([3]; listed as AG-1236): blocked; also recorded: abolished
CNc1ccc2oc(C[C@H]3O[C@@]4(CC[C@H]3C)O[C@H]([C@H](C)C(=O)c3ccc[nH]3)[C@H](C)C[C@H]4C)nc2c1C(=O)O [Calcimycin]	increase SMN	elevation of SMN levels; also recorded: active in elevating the levels of SMN; also recorded: generally active	levels of cytoplasmic and nuclear SMN (in words) ([2]; listed as A23187): active
C[C@H](CCC(=O)O)C[C@H](C)C[C@H](C)C(=O)/C=C(\O)[C@H](C)C[C@H](C)C/C=C/[C@@H](C)[C@@H](O)[C@@H](C)[C@@H](O)C[C@@H]1CC[C@@](C)([C@H]2CC[C@@](C)([C@@H](C)O)O2)O1 [Ionomycin]	increase SMN	increase in SMN levels; also recorded: active in elevating the levels of SMN; also recorded: able to increase SMN level	levels of cytoplasmic and nuclear SMN (in words) ([2]; listed as ionomycin): elevation of SMN levels; also recorded: active
CC(=O)N[C@@H](CSC(=O)[C@]1([C@@H](O)C(C)C)NC(=O)[C@H](C)[C@@H]1O)C(=O)O [Lactacystin]	increase SMN	increase in SMN levels	effect on GEMs (number / intensity, in words) ([2]; fibroblasts): mostly affected GEMs
Clc1ccc2ncnc(NCc3ccc4c(c3)OCO4)c2c1 [MBCQ]	increase SMN	–	–
CC(C)C[C@@H](C=O)NC(=O)[C@H](CC(C)C)NC(=O)[C@H](CC(C)C)NC(=O)OCc1ccccc1 [MG-132] (Cbz-Leu-Leu-Leu-aldehyde)	increase SMN	–	–
CC[C@@]1([C@@H]2O[C@@H]([C@H]3O[C@@](O)(CO)[C@H](C)C[C@@H]3C)C[C@@H]2C)CC[C@H]([C@]2(C)CC[C@]3(C[C@H](O)[C@@H](C)[C@@H]([C@@H](C)[C@@H](OC)[C@H](C)C(=O)O)O3)O2)O1 [Monensin Na]	increase SMN	–	fold increase in nuclear SMN [2]: 2 fold
O=C(Nc1ccc([N+](=O)[O-])cc1Cl)c1cc(Cl)ccc1O [Niclosamide]	SMN is increase	–	–
C[C@@H]1O[C@@H](O[C@H]2C[C@@H](O)[C@]3(CO)[C@H]4[C@H](O)C[C@]5(C)[C@@H](C6=CC(=O)OC6)CC[C@]5(O)[C@@H]4CC[C@]3(O)C2)[C@H](O)[C@H](O)[C@H]1O [Ouabain]	increase SMN	increase in SMN levels	SMN level in fibroblast screen (increase or decrease) ([1]; listed as ouabain): consistently emerged as hits
Oc1cccc(-c2nc(N3CCOCC3)c3oc4ncccc4c3n2)c1 [PI-103]	decreased SMN	–	PDGF-stimulated SMN increase in presence of inhibitor (in words) [3]: PDGF does not increase the levels of SMN; also recorded: able to prevent PDGF induced SMN increase in all cellular compartments; also recorded: completely abolished; PDGF-stimulated SMN increase in presence of inhibitor (in words) ([3]; listed as P1-103): abrogated
Nc1ccc(-c2cccc3c(=O)cc(N4CCOCC4)oc23)cc1 [PI-828]	decreased SMN	–	–
O=C1Nc2ccc3ncsc3c2C1=Cc1cnc[nH]1 [PKR inhibitor, 6,8-Dihydro-8-(1H-imidazol-5-ylmethylene)-7H-pyrrolo[2,3-g]benzothiazol-7-one]	SMN is increase	–	fold increase in cytoplasmic SMN [2]: 2 fold; fold increase in nuclear SMN [2]: 1.5 fold
O=C(CCCCCCC(=O)Nc1ccccc1)NO [SAHA, Suberoylanilide Hydroxamic Acid]	increase SMN	increase in SMN levels	effect on GEMs (number / intensity, in words) ([2]; fibroblasts): increased GEM counts at the lower concentrations; nuclear SMN at the higher dosage (in words) ([2]; fibroblasts, higher dosage): increased nuclear SMN predominantly
C/C=C(/C)C(=O)O[C@H]1C(C)=C2[C@H]([C@@H]1OC(=O)CCCCCCC)[C@@](C)(OC(C)=O)C[C@H](OC(=O)CCC)[C@@]1(O)[C@H]2OC(=O)[C@@]1(C)O [Thapsigargin]	increase SMN	active in elevating the levels of SMN; also recorded: generally active; also recorded: caused SMN upregulation	levels of cytoplasmic and nuclear SMN (in words) ([2]; listed as thapsigagin): elevation of SMN levels
CC(C)[C@@H]1NC(=O)[C@H](C)OC(=O)[C@@H](C(C)C)NC(=O)[C@@H](C(C)C)OC(=O)[C@H](C(C)C)NC(=O)[C@H](C)OC(=O)[C@@H](C(C)C)NC(=O)[C@@H](C(C)C)OC(=O)[C@H](C(C)C)NC(=O)[C@H](C)OC(=O)[C@@H](C(C)C)NC(=O)[C@@H](C(C)C)OC1=O [Valinomycin]	increase SMN	–	–
Cc1c(C(=O)c2cccc3ccccc23)c2cccc3c2n1[C@H](CN1CCOCC1)CO3 [WIN 55, 212-2]	increase SMN	increase in SMN levels	fold increase in cytoplasmic SMN [2]: 1.5 fold; fold increase in nuclear SMN [2]: 2 fold
Coumermycin A1	increase SMN	–	concentration at which SMN level was increased ([1]; during screening): 10 µM
ceramide	increase SMN	–	–
